Experimental findings from ChEMBL document CHEMBL1151716 (J Med Chem, 2008) are described below.

Series [1] deals with 3',5'-cyclic-AMP phosphodiesterase 4D (Homo sapiens, UniProt Q08499).
Description: Inhibition of full length human PDE4D2 expressed in Escherichia coli BL21 by liquid scintillation counting
Series [2] has as its target High affinity 3',5'-cyclic-AMP phosphodiesterase 7A (Homo sapiens, UniProt Q13946). Briefly: Inhibition of human cloned PDE7A1 catalytic domain expressed in Escherichia coli BL21 by liquid scintillation counting.
Series [3] concerns the target High affinity cGMP-specific 3',5'-cyclic phosphodiesterase 9A (Homo sapiens, UniProt O76083). Briefly: Inhibition of human cloned PDE9A2 expressed in Escherichia coli BL21 by liquid scintillation counting.
The target in series [4] is cGMP-dependent 3',5'-cyclic phosphodiesterase (Homo sapiens, UniProt O00408). Briefly: Inhibition of human cloned PDE2A3 expressed in Escherichia coli BL21 by liquid scintillation counting.
Chain of cGMP-dependent 3',5'-cyclic phosphodiesterase (O00408 whole entry): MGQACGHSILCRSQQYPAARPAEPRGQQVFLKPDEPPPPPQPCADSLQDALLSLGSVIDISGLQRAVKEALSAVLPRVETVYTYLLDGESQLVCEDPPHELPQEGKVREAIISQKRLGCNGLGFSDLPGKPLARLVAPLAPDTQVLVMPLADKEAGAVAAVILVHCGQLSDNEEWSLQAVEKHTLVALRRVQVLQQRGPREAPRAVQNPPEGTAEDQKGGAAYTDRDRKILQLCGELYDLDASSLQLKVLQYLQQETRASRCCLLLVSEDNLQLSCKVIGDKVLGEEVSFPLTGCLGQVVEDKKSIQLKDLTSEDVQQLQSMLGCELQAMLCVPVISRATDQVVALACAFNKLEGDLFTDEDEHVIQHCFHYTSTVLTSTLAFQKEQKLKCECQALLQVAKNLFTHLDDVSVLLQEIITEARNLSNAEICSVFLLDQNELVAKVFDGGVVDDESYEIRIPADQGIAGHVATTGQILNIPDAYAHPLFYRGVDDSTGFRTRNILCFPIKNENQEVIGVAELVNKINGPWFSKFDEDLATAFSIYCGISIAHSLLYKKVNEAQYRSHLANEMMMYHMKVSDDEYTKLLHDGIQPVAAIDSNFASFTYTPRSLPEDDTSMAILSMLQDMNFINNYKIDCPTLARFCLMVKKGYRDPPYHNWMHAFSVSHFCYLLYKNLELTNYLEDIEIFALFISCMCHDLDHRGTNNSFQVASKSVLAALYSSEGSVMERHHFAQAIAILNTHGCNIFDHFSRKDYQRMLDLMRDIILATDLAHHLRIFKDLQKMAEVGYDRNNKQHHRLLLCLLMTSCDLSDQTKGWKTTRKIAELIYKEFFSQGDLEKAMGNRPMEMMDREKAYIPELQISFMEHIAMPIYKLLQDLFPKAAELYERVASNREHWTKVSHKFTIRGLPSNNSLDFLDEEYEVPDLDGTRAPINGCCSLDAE
The target in series [5] is cGMP-specific 3',5'-cyclic phosphodiesterase (Homo sapiens, UniProt O76074). The series is described as follows: Inhibition of human cloned PDE5A1 expressed in Escherichia coli BL21 by liquid scintillation counting.
The next series relates to PBMC. Briefly: Inhibition of LPS-induced TNFalpha production in human PBMC. In kind it is functional, cell-based.
The nature of series [6]: Solubility in heavy water. The format is physicochemical.

≈ marks a conversion by molar mass, not a printed value. Where “and” joins values, the source holds several entries; their conditions need not be identical. Identical values can stand only once. Where only a bound is given, the exact number is not on record here.

Chain of 3',5'-cyclic-AMP phosphodiesterase 4D (Q08499 whole entry, the tested form may be a part): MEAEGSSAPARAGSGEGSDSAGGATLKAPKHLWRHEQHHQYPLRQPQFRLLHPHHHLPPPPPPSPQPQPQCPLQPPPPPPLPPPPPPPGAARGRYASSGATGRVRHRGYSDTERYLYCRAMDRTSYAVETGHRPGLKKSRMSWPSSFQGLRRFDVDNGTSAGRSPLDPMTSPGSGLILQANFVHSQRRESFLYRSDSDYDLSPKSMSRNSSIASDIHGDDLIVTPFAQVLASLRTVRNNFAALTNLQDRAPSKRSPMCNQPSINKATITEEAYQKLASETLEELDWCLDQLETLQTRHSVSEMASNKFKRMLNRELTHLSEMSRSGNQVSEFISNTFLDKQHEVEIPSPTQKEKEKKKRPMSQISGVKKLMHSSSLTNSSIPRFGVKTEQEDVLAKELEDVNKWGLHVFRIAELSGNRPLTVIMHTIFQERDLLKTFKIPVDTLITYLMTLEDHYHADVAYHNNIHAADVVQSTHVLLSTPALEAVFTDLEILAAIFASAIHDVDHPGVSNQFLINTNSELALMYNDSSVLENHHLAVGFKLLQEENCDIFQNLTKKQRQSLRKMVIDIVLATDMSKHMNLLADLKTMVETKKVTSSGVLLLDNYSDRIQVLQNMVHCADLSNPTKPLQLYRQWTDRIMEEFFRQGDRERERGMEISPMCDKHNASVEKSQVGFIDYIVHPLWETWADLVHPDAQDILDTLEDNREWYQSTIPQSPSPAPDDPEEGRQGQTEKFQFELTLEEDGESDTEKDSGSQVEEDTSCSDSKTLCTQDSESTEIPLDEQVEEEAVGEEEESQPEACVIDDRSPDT
Chain of High affinity 3',5'-cyclic-AMP phosphodiesterase 7A (Q13946 whole entry, the tested form may be a part): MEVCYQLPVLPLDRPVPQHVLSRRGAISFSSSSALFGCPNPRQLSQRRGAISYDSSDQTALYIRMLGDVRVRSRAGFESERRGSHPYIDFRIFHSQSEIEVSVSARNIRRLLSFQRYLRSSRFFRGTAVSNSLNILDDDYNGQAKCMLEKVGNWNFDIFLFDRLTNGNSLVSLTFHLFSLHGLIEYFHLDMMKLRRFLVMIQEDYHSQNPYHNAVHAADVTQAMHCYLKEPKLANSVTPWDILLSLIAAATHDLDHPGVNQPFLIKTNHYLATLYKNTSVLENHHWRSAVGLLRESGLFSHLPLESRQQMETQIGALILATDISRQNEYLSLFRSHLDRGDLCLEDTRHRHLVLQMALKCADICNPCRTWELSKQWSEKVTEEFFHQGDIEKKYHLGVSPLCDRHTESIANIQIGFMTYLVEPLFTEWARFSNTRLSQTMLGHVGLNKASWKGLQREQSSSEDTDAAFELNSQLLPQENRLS
Chain of High affinity cGMP-specific 3',5'-cyclic phosphodiesterase 9A (O76083 whole entry): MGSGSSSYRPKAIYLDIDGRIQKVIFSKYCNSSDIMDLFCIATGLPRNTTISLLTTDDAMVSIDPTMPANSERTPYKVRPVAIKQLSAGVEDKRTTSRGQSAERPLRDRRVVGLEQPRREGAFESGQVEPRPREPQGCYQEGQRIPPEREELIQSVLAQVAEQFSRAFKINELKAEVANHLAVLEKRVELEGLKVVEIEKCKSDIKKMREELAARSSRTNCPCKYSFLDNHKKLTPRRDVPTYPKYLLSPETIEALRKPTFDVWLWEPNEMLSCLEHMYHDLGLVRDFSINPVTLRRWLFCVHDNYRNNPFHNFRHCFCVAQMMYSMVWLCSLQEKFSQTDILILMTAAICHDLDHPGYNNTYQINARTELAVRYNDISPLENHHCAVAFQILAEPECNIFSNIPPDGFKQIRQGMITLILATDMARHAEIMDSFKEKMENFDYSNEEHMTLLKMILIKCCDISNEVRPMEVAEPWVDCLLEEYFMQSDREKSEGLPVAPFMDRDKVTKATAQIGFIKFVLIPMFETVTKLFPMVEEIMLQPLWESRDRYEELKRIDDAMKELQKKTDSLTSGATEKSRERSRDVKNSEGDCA

As usually defined, the IC50 is the concentration that inhibits the measured activity by half. As to `O=C(CCCc1ccccc1)c1ccc(OC(F)F)c(OC(F)F)c1`, in series [1], the 50% inhibitory concentration (IC50) worked out at 44 µM.
The molecule `CCCCC(=O)c1ccc(OC2CCOCC2)c(OC)c1` returned an IC50 in series [1] of 71 µM.
`COc1ccc(C(=O)CCc2ccccc2)cc1OC1CCOC1` (stereo not drawn): in series [1], the IC50 was 2.6 µM.
With `O=C(CCCc1ccccc1)c1ccc(OC(F)F)c(OC2CCOC2)c1` (stereo not drawn), the IC50 in series [1] came out at 0.636 µM.
In the case of `CCCCC(=O)c1ccc(OC(F)F)c(OC2CCN(C(=O)OC(C)(C)C)CC2)c1`, the IC50 in series [1] stood at 2.2 µM.
Same read-out and setting: then `COc1ccc(C(=O)Nc2c(Cl)cccc2Cl)cc1OC1CCCC1`, with 0.0282 µM; and `COc1ccc(C(=S)Nc2c(Cl)cccc2Cl)cc1OC1CCCC1`, with 0.2 µM.
Regarding `CCCC(O)(c1ccc(Oc2ccccn2)c(OC)c1)c1cnc2ccccc2c1` (stereo not drawn), the IC50 in series [2] was 17 µM; in series [3] it was above 50 µM; in series [4], above 50 µM; in series [5] it was 40 µM; in series [1] it was 6 µM.
With `COc1ccc(C(=O)Nc2c(F)cccc2F)cc1OC1CCCCC1`, in series [1], the IC50 was 0.398 µM.
As for `COc1ccc(C(=O)Nc2ccccc2F)cc1OC1CCCC1`, it took 10.7 µM to reach half-maximal inhibition in series [1] (IC50).
`CCCC(O)c1ccc(OC2CCOCC2)c(OC)c1` (stereo not drawn): the IC50 in series [1] was > 100 µM and 1510 µM.
As to `COc1ccc(C(=O)Nc2c(F)cccc2F)cc1O`, the IC50 in series [1] is 37.2 µM.
As for `CC(C)CC(=O)c1ccc(OC(F)F)c(OC2CCCC2)c1`, the IC50 was 100 nM in the series with PBMC and 0.028 µM in series [1].
Take `CCCC(=O)c1ccc(OC(F)F)c(OC2CCOCC2)c1`: half-maximal inhibition in series [1] (IC50) required 0.35 µM.
`COc1ccc(C(=O)Nc2ccccc2C(F)(F)F)cc1OC1CCCC1` showed an IC50 in series [1] of 3.09 µM.
In series [1], `CCCC(=O)c1ccc(OC2CCN(C(=O)OC(C)(C)C)CC2)c(OC)c1` displayed an IC50 of 29 µM.
`COc1ccc(C(=O)Nc2ccccc2Cl)cc1OC`: in series [1], the IC50 is 0.646 µM.
Turning to `CCCC(=O)c1ccc(OC)c(OC2CCOCC2)c1`, the IC50 was above 50 µM in series [2]; above 50 µM in series [3]; above 50 µM in series [4]; above 50 µM in series [5]; 3.5 µM in series [1].
Regarding `CCCC(=O)c1ccc(OC)c(OC2CCOC2)c1` (stereo not drawn), in series [1], the midpoint of inhibition, the IC50, lay at 0.43 µM.
In turn, `CCCCC(=O)c1ccc(OC2CCOC2)c(OC)c1` (stereo not drawn) yielded a 50% inhibitory concentration (IC50) in series [1] of 100 µM.
Turning to `CCCCC(=O)c1ccc(OC(F)F)c(OC2CCOC2)c1` (stereo not drawn), the IC50 in series [1] stood at 0.061 µM.
Take `COc1ccc(C(=O)CC(C)C)cc1OC1CCOC1` (stereo not drawn): in series [1], the IC50 was 0.19 µM and 0.178 µM.
In series [1], `CCCCC(=O)c1ccc(OC)c(OC2CCOC2)c1` (stereo not drawn) gave an IC50 of 0.22 µM.
In series [1], `COc1ccc(C(=O)CCC2CCCCC2)cc1OC1CCOC1` (stereo not drawn) showed an IC50 of 1.9 µM.
Molecule `COc1ccc(C(=O)CCC(C)C)cc1OC1CCOC1` (stereo not drawn) displayed an IC50 in series [1] of 0.38 µM.
`O=C(CCC1CCCCC1)c1ccc(OC(F)F)c(OC2CCOC2)c1` (stereo not drawn): in series [1], half-maximal inhibition (IC50) was put at 1.1 µM.
In series [1], `COc1ccc(C(=O)c2cnc3ccccc3c2)cc1OC1CCOCC1` gave an IC50 of 45 µM.
Same read-out and setting: then `CCCCC(O)c1ccc(OC2CCOCC2)c(OC)c1` (stereo not drawn), with > 100 µM and 537 µM; and `CCCCC(c1cccnc1)c1ccc(Oc2ccccn2)c(OC)c1` (stereo not drawn), with 10 µM.
The same measure, in the same setting: the value for `O=C(CC1CCCCC1)c1ccc(OC(F)F)c(OC(F)F)c1` was 5.2 µM.
In series [1], `O=C(CCc1ccccc1)c1ccc(OC(F)F)c(OC2CCOC2)c1` (stereo not drawn) yielded an IC50 of 0.18 µM.
For the molecule `CC(C)CC(=O)c1ccc(OC(F)F)c(OC2CCOC2)c1` (stereo not drawn), the IC50 is above 50 µM in series [2]; above 50 µM in series [3]; above 50 µM in series [4]; above 50 µM in series [5]; 40 nM in the series with PBMC.
As for `CCCCC(=O)c1ccc(OC2CCN(C(=O)OC(C)(C)C)CC2)c(OC)c1`, inhibition in series [1] was half-maximal at 93 µM (IC50).
Regarding `COc1ccc(C(=O)Nc2c(F)cccc2F)cc1OC1CCCC1`, 0.0708 µM corresponded to half-maximal inhibition in series [1] (IC50).
In the case of `CCCC(=O)c1ccc(OC2CCOCC2)c(OC)c1`, in series [1], the IC50 stood at 60 µM.
Take `COc1ccc(C(=O)CC2CCCCC2)cc1OC1CCOC1` (stereo not drawn): in series [1], half-maximal inhibition (IC50) was put at 2.6 µM.
For the molecule `COc1cc(C(CC(C)=O)c2cnc3ccccc3c2)ccc1Oc1ccccn1` (stereo not drawn), the IC50 in series [2] is above 50 µM; in series [3], above 50 µM; in series [4] it was above 50 µM; in series [5] it was above 50 µM; in series [1], 6 µM.
Consider `CCCCC(O)c1ccc(OC2CCOC2)c(OC)c1` (stereo not drawn), for which the IC50 in series [1] is > 100 µM and 398 µM.
Same read-out and setting: the value for `CCCCC(O)c1ccc(OC)c(OC2CCOC2)c1` (stereo not drawn) was 10 µM.
For orientation: solubility means how much of the substance goes into solution per volume. Low readings indicate a poorly soluble substance, high ones a readily soluble substance. `CCCCC(=O)c1ccc(OC)c(OC2CCNCC2)c1` displayed a solubility in series [6] of 800 µM (≈ 233 µg/mL). The molecule also returned an IC50 in series [1] of 102 µM.
On to `CCCC(=O)c1ccc(OC2CCOC2)c(OC)c1` (stereo not drawn), for which, in series [1], the IC50 was 24 µM.
As to `CCCC(=O)c1ccc(OC(F)F)c(Oc2ccccn2)c1`, the IC50 in series [1] worked out at 40 µM.
The molecule `CCCOc1cc(C(=O)Nc2c(F)cccc2F)ccc1OC` gave an IC50 in series [1] of 1.58 µM.
In series [1], `O=C(CC1CCCCC1)c1ccc(OC(F)F)c(OC2CCOC2)c1` (stereo not drawn) came in with an IC50 of 0.667 µM.
`CCCCC(=O)c1ccc(OC)c(OC2CCOCC2)c1` came in with a half-inhibitory concentration (IC50) in series [1] of 0.72 µM.
In series [1], `CC(C)(C)C(=O)c1ccc(OC(F)F)c(OC2CCOC2)c1` (stereo not drawn) came in with an IC50 of 0.41 µM.
`COc1cc(C(CC(C)=O)c2cccnc2)ccc1O` (stereo not drawn): in series [1], the IC50 turned out to be 80 µM.
As to `O=C(CCc1ccccc1)c1ccc(OC(F)F)c(OC(F)F)c1`, the IC50 in series [1] worked out at 0.82 µM.
Regarding `CCCC(O)c1ccc(OC2CCOC2)c(OC)c1` (stereo not drawn), the IC50 in series [1] is > 100 µM and 525 µM.
On the same count and under the same terms, then `COc1ccc(C(=O)CCCc2ccccc2)cc1OC1CCOC1` (stereo not drawn), with 2.29 µM.
